Results as given in US20150031622A1, “RHOGEF12 IS A THERAPEUTIC TARGET FOR THE TREATMENT OF HEART FAILURE” (MAX-PLANCK-GESELLSCHAFT ZUR FÖRDERUNG DER WISSENSCHAFTEN …, priority 2012, published 2015).
Bridges are numbered along the chain shown (N, C = ends). Where no end group is shown, it is not given here.

Test system: neonatal rat ventricular myocytes (NRVM)
Test: qRT-PCR of hypertrophy-specific genes (ANP, β-MHC) in NRVM
Type: cell-based
Conditions: NRVM control cells
Protocol: Neonatal rat ventricular myocytes (NRVM) were isolated from 1-2 days old rat neonates using a kit from Worthington Biochemical Corporation (Lakewood, N.J., USA). After digestion, cells were pre-plated for 1 h to remove nonmyocytes, plated on cell culture dishes pre-coated with 1% gelatin (Sigma-Aldrich) and then cultured in Dulbecco's modified Eagle's medium (DMEM) with 10% fetal bovine serum. The following day, cells were cultured in serum-free DMEM medium containing 100 μM 5-bromo 2′-deoxy-uridine (BrdU; Sigma-Aldrich). NRVM were transfected with siRNAs (Qiagen, Chatsworth, Calif., USA or Sigma-Aldrich) using Lipofectamine RNAiMAX (Invitrogen, San Diego, Calif., USA) 3 h and 20 h after plating according to the manufacturer's instructions. […]
RNA was extracted from left ventricles with the RNA fibrosis tissue kit (Qiagen) and from NRVM or adult mouse cardiomyocytes with the RNeasy Mini kit (Qiagen) according to the manufacture's protocol. […] Reverse transcriptase (RT) reaction was performed using the QuantiTect Reverse Transcription kit (Qiagen). Quantitative RT-PCR was performed using the LightCycler 480 Probe Master or LightCycler 480 SYBR Green Master (Roche). […]
Primers for the analysis of RhoGEF expression were used as described previously^40. Data are in all cases presented after normalization to GAPDH, in some cases the relative change compared to basal conditions was calculated.

## endothelin-1 (CSCSSLMDKECVYFCHLDIIW; disulfide 1-15, 3-11; ends not checked; UniProt P05305 53-73, looked up) [ET-1, hypertrophic stimulus, GPCR agonist, purchased from Sigma-Aldrich]
  expression of hypertrophy-specific genes (ANP, β-MHC) after stimulus: increased gene expression
